Results taken from patent publication EP3449978A1, “INHIBITORS OF ARYL HYDROCARBON RECEPTOR FOR TREATING SOFT-TISSUE SARCOMA AND PREVENTING NEUROFIBROMA GROWTH AND/OR TRANSFORMATION TO MALIGNANT PERIPHERAL NERVE SHEATH TUMORS” (UNIVERSITE PARIS DESCARTES, priority 2017, dated 2019).

Legend:
Format in all cases: cell-based, human
[1] = test system: 90-8 cells; assay: Annexin V / PI flow cytometry in 90-8 cells; conditions: 50µM, 48h and 72h, Annexin V and PI staining (Fig. 3C, 3D)
Procedure: • Figure 1: AHR signaling pathway is activated in Dermal and Plexiform Neurofibromas, and MPNST. • A, Total RNA was isolated from patients having Dermal Neurofibromas (n=8), Plexiform Neurofibromas (n=16) and MPNST (n=14). RT-qPCR were performed using primers recognizing specifically the genes indicated. Table indicates median [range] mRNA levels. mRNA levels were normalized such that the median value of the dermal neurofibromas was 1. Kruskal Wallis H test was used to compare MPNST vs Plexiform Neurofibromas vs Dermal Neurofibromas. • B and B', Representative immunohistochemical study of AhR in a case of MPNST. […] A strong nuclear AhR staining is detected in a proportion of tumor cells while intra-tumoral vessels (arrows) whereas fibroblasts in a fibrous septa (*) taken as internal negative controls are not stained. • Figure 2: AhR inhibition induced death of MPNST cell lines (STS26T) by apoptosis. • A, STS26T cell line was reverse transfected with either non-transfected (NT) or siRNA (10 nM). […] Quantitative real-time PCR experiments were performed using primers recognizing AhR, AHRR, ARNT, CYP1A1 and CYP1 B1. *p<0.05, by non-parametric Student's t-test. • B, Flow cytometry has been conducted to determine the percentage of cell population of living cells, apoptotic cells, late apoptosis and dead. […]

[2] = test system: AhR; assay: Quantitative RT-PCR of AhR target and cell death genes in 90-8 cells
Procedure: RT-qPCR were performed using primers recognizing specifically the genes indicated. […] The total RNA was then extracted from these cells. […] Quantitative real-time PCR experiments were performed using primers recognizing CYP1A1 and CYP1 B1. *p<0.05, **p<0.01, ***p<0.001 by students t-test. • B, Human MPNST cell line (90-8) was incubated with AhR antagonist CH-223191 (1, 5, 10, 50 and 100 µM) during 48h and 72h. […] E, Total RNA was extracted from 90-8 cell line. Quantitative real-time PCR experiments were performed using primers recognizing PUMA, GADD45 and IL1β. The RT-PCR was normalized using 26S RNA. Data represent the mean+/-SEM of at least 3 independent experiments. *p<0.05, **p<0.01, **p<0.001, by Student's t test.

[3] = test system: STS26T cells; assay: Annexin V / PI flow cytometry in STS26T cells
Procedure: • Figure 1: AHR signaling pathway is activated in Dermal and Plexiform Neurofibromas, and MPNST. • A, Total RNA was isolated from patients having Dermal Neurofibromas (n=8), Plexiform Neurofibromas (n=16) and MPNST (n=14). RT-qPCR were performed using primers recognizing specifically the genes indicated. Table indicates median [range] mRNA levels. mRNA levels were normalized such that the median value of the dermal neurofibromas was 1. Kruskal Wallis H test was used to compare MPNST vs Plexiform Neurofibromas vs Dermal Neurofibromas. • B and B', Representative immunohistochemical study of AhR in a case of MPNST. Formalin fixed, paraffin embedded MPNST samples were stained with Hematoxylin-eosin-saffron (HES) and antibody recognizing AhR has been used to detect AhR. A strong nuclear AhR staining is detected in a proportion of tumor cells while intra-tumoral vessels (arrows) whereas fibroblasts in a fibrous septa (*) taken as internal negative controls are not stained. • Figure 2: AhR inhibition induced death of MPNST cell lines (STS26T) by apoptosis. • A, STS26T cell line was reverse transfected with either non-transfected (NT) or siRNA (10 nM). The total RNA was then extracted from these cells. Quantitative real-time PCR experiments were performed using primers recognizing AhR, AHRR, ARNT, CYP1A1 and CYP1 B1. *p<0.05, by non-parametric Student's t-test. • B, Flow cytometry has been conducted to determine the percentage of cell population of living cells, apoptotic cells, late apoptosis and dead. After 72h of medium change, cells are stained with Annexin and PI to detect the apoptosis and necrosis. Results represent the means +/- SEM of at least four independent experiments. *p<0.05, by non-parametric Student's t-test. • C, Total RNA was extracted from MPNST cell line STS26T treated either with TMF (10µM) and CH-223191 (50µM) or DMSO. Quantitative real-time PCR experiments were performed using primers recognizing CYP1A1, IL1β. The RT-PCR was normalized using TBP mRNA. Data represent the mean +/- SEM of at least 3 independent experiments. *p<0.05, by Student's t-test. • D, Human STS26T cell line was treated with either AHR antagonists CH-223191 (10µM and 50µM) or TMF (10µM) or DMSO. After 48h/72h of medium change, cells are stained with Annexin V and Propidium Iodide (PI) to detect apoptosis and necrosis. Flow cytometry has been conducted to determine the percentage of cell population of living cells (Annexin V-/PI-), apoptotic cells state (Annexin V+/PI-), late apoptosis state cells (Annexin V+/PI+) and dead cells (Annexin V-/PI+). […] Quantitative real-time PCR experiments were performed using primers recognizing CYP1A1 and CYP1 B1. *p<0.05, **p<0.01, ***p<0.001 by students t-test. • B, Human MPNST cell line (90-8) was incubated with AhR antagonist CH-223191 (1, 5, 10, 50 and 100 µM) during 48h and 72h. Cell viability was analyzed using WST1 assay. **p<.01, by Bonferroni's post hoc tests after two-way ANOVA when compared with DMSO. • C - D, Percentage of cell population of apoptotic (Annexin V+/PI-), dead (Annexin V-/PI+), necrotic (Annexin V+/PI+) and living (Annexin V-/PI-) cells were analyzed using flow cytometry. […] Quantitative real-time PCR experiments were performed using primers recognizing PUMA, GADD45 and IL1β. […]

[4] = test system: AhR; assay: Quantitative RT-PCR of AhR pathway genes in STS26T cells; conditions: TMF 10µM, CH-223191 50µM, versus DMSO (Fig. 2C)
Procedure: • Figure 1: AHR signaling pathway is activated in Dermal and Plexiform Neurofibromas, and MPNST. • A, Total RNA was isolated from patients having Dermal Neurofibromas (n=8), Plexiform Neurofibromas (n=16) and […]=14). RT-qPCR were performed using primers recognizing specifically the genes indicated. […] Kruskal Wallis H test was used to compare MPNST vs Plexiform Neurofibromas vs Dermal Neurofibromas. • B and B', Representative immunohistochemical study of AhR in a case of MPNST. Formalin fixed, paraffin embedded MPNST samples were stained with Hematoxylin-eosin-saffron (HES) and antibody recognizing AhR has been used to detect AhR. A strong nuclear AhR staining is detected in a proportion of tumor cells while intra-tumoral vessels (arrows) whereas fibroblasts in a fibrous septa (*) taken as internal negative controls are not stained. • Figure 2: AhR inhibition induced death of MPNST cell lines (ST[…]) by apoptosis. • A, ST[…] cell line was reverse transfected with either non-transfected (NT) or siRNA (10 nM). The total RNA was then extracted from these cells. Quantitative real-time PCR experiments were performed using primers recognizing AhR, AHRR, ARNT, CYP1A1 and CYP1 B1. *p<0.05, by non-parametric Student's t-test. • B, Flow cytometry has been conducted to determine the percentage of cell population of living cells, apoptotic cells, late apoptosis and dead. […]

[5] = test system: 90-8 cells; assay: In vitro cytotoxicity assay (WST1 assay) in 90-8 cells; conditions: 50 µM, WST1 assay (Fig. 3B)
Procedure: 90-8 cells were seeded in triplicate on 96-well plates. Cells were treated with either CH-223191 or 0.1% DMSO. Cytotoxicity was quantified 48 and 72 hours after treatment using WST1 assay (Roche). Relative cytotoxicity was determined as ratio of absorbance at 450 nm of cells treated with CH-223191 versus cells treated with DMSO. IC50 values corresponding to concentrations associated to 50% of cell viability after 72 hours of continuous exposure were determined.

| SMILES | number of dead cells, apoptosis and necrosis [1] | expression of IL1β ([2]; 90-8 cells (Fig. 3E)) | expression of PUMA and GADD45 genes ([2]; 90-8 cells (Fig. 3E)) | expression of the classical AhR target genes: CYP1A1 and CYP1B1 ([2]; 90-8 cells, 50 µM (Fig. 3A)) | cell death, apoptosis and necrosis ([3]; STS26T, 50µM at 48h and 72h, Annexin V and PI staining (Fig. 2D)) | expression of AhR target gene: CYP1A [4] | decreased 90-8 cell viability [5] | effect on STS26T cell death ([3]; 10µM at 48h and 72h, compared with CH-223191) | cells necrotic ([3]; STS26T, 10µM, 72h) | cells underwent apoptosis ([3]; STS26T, 10µM, 72h) | decrease of cell viability ([3]; STS26T, 10µM, 72h) |
| --- | --- | --- | --- | --- | --- | --- | --- | --- | --- | --- | --- |
| Cc1ccccc1N=Nc1ccc(NC(=O)c2ccnn2C)c(C)c1 [CH-223191] | increased the number of dead cells and enhanced apoptosis and necrosis | reduced | enhanced | inhibited | increased cell death and enhanced apoptosis and necrosis | inhibited | 50% | – | – | – | – |
| COc1ccc(-c2cc(=O)c3cc(OC)ccc3o2)c(OC)c1 [TMF, 6,2',4',-trimethoxyflavone] | – | – | – | – | – | inhibited | – | more potent effect than CH-223191 | 30% | 20% | 50% |
